Measurements: patent US8563742B2, “Substituted aminothiazole derivatives, pharmaceutical compositions, and methods of use” (High Point Pharmaceuticals, LLC, priority 2008, dated 2013)
Where no end group is shown, it is not given here.

Key:
human MC-4R = molecular target: T1, human MC-4R (Homo sapiens, UniProt P32245); experiment: Biological Assay: inhibition of AgRP functional interaction with MC-4R in presence of αMSH (cAMP production); assay type: cell-based; details: HEK293 cells expressing human MC-4R, AgRP83-132 and αMSH present; read-out: Average EC50 (nM) in Biological Assay
T1 construct: expressed in transfected cells
T1 sequence (P32245 whole entry): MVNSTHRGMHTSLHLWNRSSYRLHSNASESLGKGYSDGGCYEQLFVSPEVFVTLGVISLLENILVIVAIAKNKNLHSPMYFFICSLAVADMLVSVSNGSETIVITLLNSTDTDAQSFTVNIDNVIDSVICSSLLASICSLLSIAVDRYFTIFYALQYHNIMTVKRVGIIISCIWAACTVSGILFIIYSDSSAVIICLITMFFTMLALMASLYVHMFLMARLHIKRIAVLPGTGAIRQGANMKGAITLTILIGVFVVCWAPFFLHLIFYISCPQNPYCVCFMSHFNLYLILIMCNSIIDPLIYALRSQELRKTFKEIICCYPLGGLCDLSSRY
Method in brief: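 HEK293 cells stably expressing human MC-4R (20,000/well) in EBSS/HEPES pH 7.4 with 0.5 mM IBMX. Compounds preincubated 30 min at room temperature with human AgRP83-132, then cells added and stimulated with αMSH 30 min at 37 °C. Intracellular cAMP measured after lysis; inhibition of AgRP seen as increased cAMP.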

in vivo = details: male, Sprague Dawley, rat, po, 5 mg/kg
[1] = rat, in vivo, po, 5 mg/kg; for Plasma:Brain Ratio: male, Sprague Dawley, 2 h
[2] = Stability in Liver Microsomes (dog); assay type: in vitro ADME; details: 1 μM, 0.5 mg protein/mL, NADPH, 60 minutes, 37° C., pH 7.4
Experimental: (§1) Various compounds were tested for their stability in human, monkey, dog, rat, and mouse liver microsomes. At a final concentration of 1 μM, compounds were incubated with either human, monkey, dog, rat, or mouse liver microsomes (0.5 mg protein/mL) in the presence of an NADPH-solution for 60 minutes at 37° C., pH 7.4 in phosphate buffer. Incubations were performed in duplicate. Reactions were terminated by the addition of methanol. The incubation solution was vortexed and transferred into a 96-well plate. The plate was sealed and centrifuged at approximately 3500 rpm for approximately 10 minutes. After centrifugation, the plate was loaded into 96-well plate autosampler and analyzed by LC/MS. Values are reported as percent of compound remaining after 1 hour.

[3] = Stability in Liver Microsomes (human); assay type: in vitro ADME; details: 1 μM, 0.5 mg protein/mL, NADPH, 60 minutes, 37° C., pH 7.4
Experimental: as §1

[4] = Stability in Liver Microsomes (monkey); assay type: in vitro ADME; details: 1 μM, 0.5 mg protein/mL, NADPH, 60 minutes, 37° C., pH 7.4
Experimental: as §1

[5] = system: adult male Sprague Dawley rats; experiment: Feeding Study (icv AgRP, food intake and body weight); assay type: in vivo, Rat
Experimental: 27 adult male Sprague Dawley rats (Charles River Laboratories) were implanted with right lateral cerebral ventricular cannulas and allowed to recover for one week. After one week, animals were then randomized into 4 groups that were matched for food intake and body weight: water gavage-icv saline (n=6); Example 7 gavage-icv saline (n=7); water gavage-icv AgRP (n=7); Example 7 gavage-icv AgRP (n=7). Water or Example 7 (30 mg/kg) was administered at by oral gavage followed by icv injection of either saline or 0.2 nmol human AgRP 83-132. AgRP stimulated food intake and body weight gain over the next 24 h compared to saline controls. Both of these effects of AgRP were blocked by injection administration of Example 7.
On day 2 a second dose of Example 7 (30 mg/kg) or water was administered by oral gavage. On day 3, water or Example 7 (30 mg/kg) was administered for the third and final time by oral gavage followed by icv injection of either saline or 0.2 nmol human AgRP83-132. Food intake and body weight were monitored daily and animals were sacrificed on day 5.

[6] = Pharmacokinetic screening in rats (plasma and brain); details: rat, 5 mg/kg PO
OVX rats = experiment: Sexual Behavior, sub-chronic regimen in OVX rats; assay type: in vivo, Rat; details: 30 mg/kg/day PO, 5 days
Experimental: Rats were ovariectomized (OVX) under ketamine/xylazine anesthesia with 8 rats per group. OVX rats were then administered estradiol benzoate (10 micrograms) 48 hours and progesterone (500 micrograms) 4 hours before five baseline tests of sexual behavior with sexually vigorous stud males. Tests were 30 minutes in duration and were conducted at 4-day intervals. All females developed normal rates of appetitive and consummatory sexual behavior. Following this baseline test phase, females were switched to an estrogen-alone baseline phase, during which they were administered estradiol benzoate (10 micrograms) 48 hours before tests of sexual behavior with sexually vigorous males. These tests were conducted at 14-day intervals, to assure low rates of appetitive responding (e.g., solicitations, hops and darts). After the second test, females were assigned randomly to 4 groups, a saline control, two doses of Example 7 antagonist (10 and 30 mg/kg, PO), and a positive control using melanotan II (MT-II) (1 mg/kg, SC). The saline control and Example 7 were gavaged daily for 5 days prior to the test. The MT-II control was injected acutely 5 min prior to the test. The test was recorded on video and scored by a technician blind to which drug the animals were receiving. Behaviors were subjected to one-way ANOVAs. For each significant effect, posthoc tests were conducted on the means using the Tukey method, P<0.05.

[7] = Stability in Liver Microsomes (mouse); assay type: in vitro ADME; details: 1 μM, 0.5 mg protein/mL, NADPH, 60 minutes, 37° C., pH 7.4
Experimental: as §1

[8] = Stability in Liver Microsomes (rat); assay type: in vitro ADME; details: 1 μM, 0.5 mg protein/mL, NADPH, 60 minutes, 37° C., pH 7.4
Experimental: as §1

[9] = 30 mg/kg oral gavage + icv saline compared to water + icv saline
[10] = 30 mg/kg oral gavage, icv 0.2 nmol human AgRP 83-132, 24 h
[11] = 0.2 nmol icv, water gavage, next 24 h

Row | Compound | EC50 (human MC-4R) | concentration at 2 h (in vivo; Brain - 2 hours (ng/g)) | concentration at 2 h (in vivo; Plasma - 2 hours (ng/mL)) | Plasma:Brain Ratio [1] | Stability in Liver Microsomes (% remaining after 1 hour incubation) Dog [2] | Stability in Liver Microsomes (% remaining after 1 hour incubation) Human [3] | Stability in Liver Microsomes (% remaining after 1 hour incubation) Monkey [4] | Stability in Liver Microsomes (% remaining after 1 hour incubation) Mouse [7] | Stability in Liver Microsomes (% remaining after 1 hour incubation) Rat [8] | also measured
1 | CCc1ccc(CN(CCC(=O)[O-])c2nc([C@H]3CC[C@H](C(C)(C)C)CC3)cs2)s1.[Na+] [Example 8, Sodium; 3-[[4-(trans-4-tert-butyl-cyclohexyl)-thiazol-2-yl]-(5-ethyl-thiophen-2-ylmethyl)-amino]-propionate] | 210 nM | 1580 ng/g | 5160 ng/mL | 3.3:1 | 91% | 93% | 84% | 88% | 88% | –
2 | Cc1ccc(CN(CCC(=O)[O-])c2nc([C@H]3CC[C@H](C(C)C)CC3)cs2)s1.[Na+] [Example 9, Sodium; 3-[[4-(4-trans-isopropyl-cyclohexyl)-thiazol-2-yl]-(5-methyl-thiophen-2-ylmethyl)-amino]-propionate] | 274 nM | – | – | – | 92% | 82% | 74% | 69% | 66% | Plasma - 2 hours [1]: 3062 ng/mL
3 | C[C@H]1CC[C@H](Oc2ccc(-c3csc(N(CCC(=O)[O-])Cc4cccs4)n3)cc2)CC1.[Na+] [Reference Compound C, Sodium 3-({4-[4-(trans-4-methyl-cyclohexyloxy)-phenyl]-thiazol-2-yl}-thiophen-2-ylmethyl-amino)-propionate, reference compound] | – | 1240 ng/g | 2460 ng/mL | 2.0:1 | – | – | – | – | – | –
4 | AgRP: AgRP83-132 (human, Phoenix Pharma, cat no. 003-53), Agouti related protein fragment given icv (SSRRCVRLHESCLGQQVPCCDPCATCYCRFFNAFCYCRKLGTAMNPCSRT; ends and bridges not checked; cysteine pairing not given here; UniProt O00253 83-132, looked up, fragment) [reference compound] | – | – | – | – | – | – | – | – | – | cumulative weight gain over the entire period, icv AGRP + H2O ([5]; 0.2 nmol icv days 1 and 3, water gavage, to day 5): above 30 grams; body weight gain after icv AgRP compared to saline controls [5, 11]: stimulated; food intake after icv AgRP compared to saline controls [5, 11]: stimulated

Second part, led by results:

Row | EC50 (human MC-4R) | concentration at 2 h (in vivo; Brain - 2 hours (ng/g)) | concentration at 2 h (in vivo; Plasma - 2 hours (ng/mL)) | Plasma:Brain Ratio [1] | Stability in Liver Microsomes (% remaining after 1 hour incubation) Dog [2] | Stability in Liver Microsomes (% remaining after 1 hour incubation) Human [3] | Stability in Liver Microsomes (% remaining after 1 hour incubation) Monkey [4] | Stability in Liver Microsomes (% remaining after 1 hour incubation) Mouse [7] | Stability in Liver Microsomes (% remaining after 1 hour incubation) Rat [8] | Compound | also measured
5 | 241 nM | 1460 ng/g | 3780 ng/mL | 2.6:1 | – | – | – | – | – | CCc1ccc(CN(CCC(=O)[O-])c2nc(C3CCC(C)CC3)cs2)s1.[Na+] (centres unmarked) [Example 5, Sodium; 3-{(5-ethyl-thiophen-2-ylmethyl)-[4-(4-methyl-cyclohexyl)-thiazol-2-yl]-amino}-propionate] | –
6 | 159 nM | – | – | – | 66% | 78% | 67% | 68% | 57% | Cc1ccc(CN(CCC(=O)[O-])c2nc([C@H]3CC[C@H](C(C)(C)C)CC3)cs2)s1.[Na+] [Example 7, Sodium; 3-[[4-(trans-4-tert-butyl-cyclohexyl)-thiazol-2-yl]-(5-methyl-thiophen-2-ylmethyl)-amino]-propionate] | effect on food intake, icv saline [5, 9]: no significant effect; effect on weight gain, icv saline [5, 9]: no significant effect; cumulative weight gain over the entire period, Example 7 + icv AgRP ([5]; 30 mg/kg oral gavage days 1, 2, 3, icv AgRP days 1 and 3, to day 5): less than 15 grams; effect on AgRP stimulated body weight gain [5, 10]: blocked; effect on AgRP stimulated food intake [5, 10]: blocked; concentration at 2 h ([6]; male, Sprague Dawley, plasma, po, 5 mg/kg, Plasma - 2 hours (ng/mL), 2 hour time point): 6460 ng/mL; Brain - 24 hours AUC (h * ng/g) ([6]; 24 hour study): ++++ (values above 20,000 h*ng/g); increase of mean frequency of high-intensity lordosis postures, factor relative to saline (OVX rats): 3.5; increase of mean number of solicitations, factor relative to saline (OVX rats): 6; increase of mean frequency of high-intensity lordosis postures, factor relative to MT-II (OVX rats; MT-II 1 mg/kg SC): 3.2; increase of mean number of solicitations, factor relative to MT-II (OVX rats; MT-II 1 mg/kg SC): 2
7 | 275 nM | 1910 ng/g | 7620 ng/mL | 4.0:1 | – | – | – | – | – | CCc1ccc(CN(CCC(=O)[O-])c2nc(C3CCC(c4ccccc4)CC3)cs2)s1.[Na+] (centres unmarked) [Example 39, Sodium; 3-{(5-ethyl-thiophen-2-ylmethyl)-[4-(4-phenyl-cyclohexyl)-thiazol-2-yl]-amino}-propionate] | –
8 | 76 nM | 536 ng/g | 1040 ng/mL | 1.9:1 | – | – | – | – | – | Cc1ccc(CN(CCC(=O)[O-])c2nc(C3(C)CCC(C)CC3)cs2)s1.[Na+] (centres unmarked) [Example 46, Sodium; 3-[[4-(1,4-dimethyl-cyclohexyl)-thiazol-2-yl]-(5-methyl-thiophen-2-ylmethyl)-amino]-propionate] | –
9 | – | 2110 ng/g | 3080 ng/mL | 1.5:1 | 95% | 82% | 64% | 99% | 91% | O=C([O-])CCN(Cc1cccs1)c1nc(-c2ccc(-c3ccccc3)cc2)cs1.[Na+] [Reference Compound B, Sodium 3-[(4-biphenyl-4-yl-thiazol-2-yl)-thiophen-2-ylmethylamino]-propionate, reference compound] | –
